Measurements published in patent US10907168B2, “Jasmonic acid pathway activator” (MEDICAGO INC., priority 2015, dated 2021).

How the values were obtained:
[1] = system: A. tumefaciens; experiment: Bacterial counts (CFU) in agroinfiltrated leaves; format: in vivo, Agrobacterium tumefaciens; settings: control and treated leaves; after four or six days post-infiltration
Description: Two gene vectors were used for the agroinfiltration assays: an engineered pcambia2300 vector encoding the light and heavy chains of C5-1 fused to an N-terminal signal peptide sequence for cellular secretion (see Goulet et al., 2012 for details on gene construct); and the original (“empty”) pcambia2300 binary vector (CAMBIA, Canberra, Australia) as a control for agroinfection. The two binary vectors were electroporated into A. tumefaciens strain LBA4404 and the cultures were maintained in Luria-Bertani (LB) medium supplemented with 50 μg/ml kanamycin and 50 μg/ml rifampicin. For infiltration, bacteria were grown to stable phase at 28° C. to an OD600 of 1.0 and collected by centrifugation at 2,000 g. The bacterial pellets were resuspended in 10 mM 2-[N-morpholino] ethanesulfonic acid] (MES) buffer, pH 5.8, containing 100 μM acetosyringone and 10 mM MgCl2. Leaf infiltration was performed using a needle-less syringe as described earlier (D'Aoust et al., 2009), after mixing the C5-1 antibody (or empty vector) agrobacterial suspension with an equal volume of bacterial suspension carrying a binary vector for the protein silencing suppressor p19 (Voinnet et al., 2003). […] Bacterial loads in leaves were determined by the counting of CFU on LB agar plates coated with bacteria recovered at different moments from the third main stem leaf. […]

[2] = system: C5-1 light and heavy chain mRNA; experiment: Real-time RT PCR of C5-1 light and heavy chain transcripts; format: in vivo, Nicotiana benthamiana; settings: 1 mM spray, 24 h before infiltration
[3] = system: C5-1 antibody; experiment: C5-1 antibody quantification by ELISA in agroinfiltrated leaves; format: in vivo, Nicotiana benthamiana
Protocol: Forty-two day-old N. benthamiana plants grown in greenhouse were used for the experiments. Each plant was sprayed evenly with 50 ml of 0.5 mM, 1 mM or 2 mM MeJA in water containing 0.1% (v/v) Triton X-100 (Sigma-Aldrich, Mississauga ON, Canada), or with 50 ml of 1 mM arachidonic acid (Girard et al., 2007) in the same solvent, and transferred for seven days in a Conviron growth chamber (Conviron, Winnipeg MB, Canada). Plants sprayed with 50 ml of 0.1% (v/v) Triton X-100 in water were used in parallel as negative controls to avoid confounding effects due to experimental conditions. Two or three 1-cm^2 leaf discs were harvested from the third main stem leaf (see Robert et al., 2013) after seven days, as source material for protein and RNA extraction. The leaf samples were frozen immediately in liquid nitrogen and stored at −80° C. until protein or RNA extraction. Three to five biological (plant) replicates were used for each treatment, to allow for statistical treatment of the data. Two gene vectors were used for the agroinfiltration assays: an engineered pcambia2300 vector encoding the light and heavy chains of C5-1 fused to an N-terminal signal peptide sequence for cellular secretion (see Goulet et al., 2012 for details on gene construct); and the original (“empty”) pcambia2300 binary vector (CAMBIA, Canberra, Australia) as a control for agroinfection. The two binary vectors were electroporated into A. tumefaciens strain LBA4404 and the cultures were maintained in Luria-Bertani (LB) medium supplemented with 50 μg/ml kanamycin and 50 μg/ml rifampicin. For infiltration, bacteria were grown to stable phase at 28° C. to an OD600 of 1.0 and collected by centrifugation at 2,000 g. The bacterial pellets were resuspended in 10 mM 2-[N-morpholino] ethanesulfonic acid] (MES) buffer, pH 5.8, containing 100 μM acetosyringone and 10 mM MgCl2. Leaf infiltration was performed using a needle-less syringe as described earlier (D'Aoust et al., 2009), after mixing the C5-1 antibody (or empty vector) agrobacterial suspension with an equal volume of bacterial suspension carrying a binary vector for the protein silencing suppressor p19 (Voinnet et al., 2003). Infiltrated tissue for molecular characterization was collected six days post-infection (i.e. seven days post-MeJA or arachidonate treatment), unless otherwise indicated. Three to five biological (plant) replicates were used for each treatment to allow for statistical analyses. ELISA plates for C5-1 antibody quantification (Becton Dickinson, Mississauga ON, Canada) were coated with 3.75 μg/ml goat anti-mouse heavy chain-specific IgG1 (Sigma-Aldrich) in 50 mM carbonate buffer (pH 9.0) at 4° C. for 16-18 h. The plates were washed three times in 10 mM phosphate-buffered saline containing 0.1% (v/v) Tween 20 (PBS-T), blocked through a 1-h incubation at 37° C. in 1% (w/v) casein in phosphate-buffered saline (PBS) (Pierce, Rockford Ill., USA), and washed three times in PBS-T. A standard curve was generated for each plate with 0, 4, 8, 16, 24, 32, 40 and 60 ng/ml of purified mouse IgG1 (Sigma-Aldrich). All dilutions (controls and samples) were performed in a control extract obtained from leaf tissue infiltrated with a mock inoculum so that any matrix effect was eliminated. The plates were incubated with protein samples for 1 h at 37° C., washed three times in PBS-T and then incubated with peroxidase-conjugated goat anti-mouse IgG (H+L) antibodies (0.02 μg/ml in blocking solution) (Jackson ImmunoResearch) for 1 h at 37° C. After additional washes with PBS-T, the plates were incubated with the 3,3′,5,5′-tetramethylbenzidine Sure Blue peroxidase substrate (KPL, Gaithersburg Md., USA). The reaction was stopped by the addition of 1 N HCl and the absorbance was read at 450 nm. Three independent (biological) replicates were used for each assay.

[4] = ELISA, 1 mM, 24 h before infiltration

## CC/C=C\C[C@H]1C(=O)CC[C@@H]1CC(=O)OC [MeJA, methyl jasmonate]
[1]
  bacterial counts: less than a million
[2]
  mRNA transcript numbers for C5-1 light and heavy chains compared with control leaf extracts: about twofold
[3]; 1 mM, 24 h before infiltration, antibody expressed under alfalfa plastocyanin promoter
  C5-1 yield change: more than twofold decrease
[3]; [4]
  C5-1 net yield as share of TSP: ~7 % TSP
  C5-1 net yield on a protein-relative basis: 70 ng antibody/μg soluble proteins
[3]; ELISA, 1 mM, 24 h before infiltration, P<0.05
  C5-1 protein-relative yield compared with control leaves: about twice
[3]; ELISA, 1 mM, 24 h before infiltration, maximum yield
  C5-1 yield on a weight basis: ~425 μg/g leaf tissue
[3]; ELISA, 2 mM, 24 h before infiltration
  C5-1 yield on a weight basis: ~325 μg/g leaf tissue
[3]; ELISA, sprayed 24 h post-infiltration (0.5 or 1 mM)
  C5-1 yield change: No yield increase
